What all share (assay): Test B preemergence
Holding throughout (format): in vivo

Assay [1] has as its system Surinam grass (Brachiaria decumbens). The method, boiled down: (§1)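 Ratings on a 0 to 100 visual scale (100 complete control) compare treated plants with controls 13 to 15 days after application. Treatments were pre- or postemergence sprays of compound in non-phytotoxic solvent with surfactant.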
The test system of assay [2] is barnyardgrass (Echinochloa crus-galli). The method, boiled down:
as §1

Assay [3] concerns cocklebur (Xanthium strumarium). The method, boiled down:
as §1

The next assay relates to corn (Zea mays). The method, boiled down:
as §1

The subject of assay [4] is crabgrass (Digitaria sanguinalis). The method, boiled down: as §1
Assay [5] has as its system giant foxtail (Setaria faberii). The method, boiled down: as §1
Assay [6] relates to lambsquarters (Chenopodium album). The method, boiled down: as §1
Assay [7] deals with morning glory (Ipomoea hederacea). The method, boiled down:
as §1

Assay [8] concerns pigweed (Amaranthus retroflexus). The method, boiled down: as §1
The next assay concerns rice (Oryza saliva). The method, boiled down: as §1
The subject of assay [9] is velvetleaf (Abutilon theophrasti). The method, boiled down: as §1
Where [10] appears, read: Preemergence, Rate 500 g/ha, scale 0 to 100, 0 no effect, 100 complete control.
The mark [11] stands for this setting: preemergence, Rate 125 g/ha, scale 0 to 100, 0 no effect, 100 complete control.
Where [12] appears, read: preemergence, Rate 62 g/ha, scale of 0 to 100 where 0 is no effect and 100 is complete control, 13 to 15 days.
Setting [13] is: preemergence, Rate 250 g/ha, scale 0 to 100, 0 no effect, 100 complete control.

As to `CC(C)(C)c1nn(C2CCN(c3cccc(C(F)(F)F)c3)C2=O)cc1Cl` (stereo not drawn) [Compound 14], the “Plant response rating, Surinam grass” value in assay [1] (setting [10]) and in [1] (setting [11]) was 0 in each case. Moreover, the “Plant response rating, Barnyardgrass” value in assay [2] (setting [10]) and in assay [2] (setting [11]) was 0 throughout. Besides, the “Plant response rating, Cocklebur” value in [3] (setting [10]) and in assay [3] (setting [11]) was 0 each time. Further, the “Plant response rating, Corn” value in the assay with corn (Zea mays) (setting [10]) and in the assay on corn (Zea mays) (setting [11]) was 0 throughout. The “Plant response rating, Crabgrass” value in assay [4] (setting [10]) and in assay [4] (setting [11]) was 0 each time. The “Plant response rating, Foxtail, Giant” value in [5] (setting [10]) and in assay [5] (setting [11]) was 0 each time. Also, the “Plant response rating, Lambsquarters” value in assay [6] (setting [10]) and in assay [6] (setting [11]) was 0 throughout. Further, the “Plant response rating, Morningglory” value in [7] (setting [10]) and in [7] (setting [11]) was 0 in each case. For the same compound, the “Plant response rating, Pigweed” value in assay [8] (setting [10]) and in assay [8] (setting [11]) was 0 in each case. For the same compound, the “Plant response rating, Rice” value in the assay on rice (Oryza saliva) (setting [10]) and in the assay with rice (Oryza saliva) (setting [11]) was 0 in each case. Moreover, the “Plant response rating, Velvetleaf” value in assay [9] (setting [10]) and in [9] (setting [11]) was 0 in each case.
In the case of `O=C1C(n2cc(Cl)c(C3CC3)n2)CCN1c1cccc(C(F)(F)F)c1` (stereo not drawn) [Compound 12], the “Plant response rating, Surinam grass” value in assay [1] (setting [10]) and in assay [1] (setting [11]) was 0 throughout. For the same compound, the “Plant response rating, Barnyardgrass” value in [2] (setting [10]) and in assay [2] (setting [11]) was 0 in each case. In addition, the “Plant response rating, Cocklebur” value in assay [3] (setting [10]) and in assay [3] (setting [11]) was 0 each time. Also, the “Plant response rating, Corn” value in the assay with corn (Zea mays) (setting [10]) and in the assay with corn (Zea mays) (setting [11]) was 0 in each case. Moreover, the “Plant response rating, Crabgrass” value in assay [4] (setting [10]) and in [4] (setting [11]) was 0 in each case. Besides, the “Plant response rating, Foxtail, Giant” value in assay [5] (setting [10]) and in assay [5] (setting [11]) was 0 in each case. The “Plant response rating, Lambsquarters” value in assay [6] (setting [10]) and in [6] (setting [11]) was 0 in each case. Besides, the “Plant response rating, Morningglory” value in [7] (setting [10]) and in [7] (setting [11]) was 0 in each case. The “Plant response rating, Pigweed” value in assay [8] (setting [10]) and in assay [8] (setting [11]) was 0 throughout. Moreover, the “Plant response rating, Rice” value in the assay on rice (Oryza saliva) (setting [10]) and in the assay with rice (Oryza saliva) (setting [11]) was 0 throughout. The “Plant response rating, Velvetleaf” value in assay [9] (setting [10]) and in [9] (setting [11]) was 0 in each case.
On to `CCC(C)c1ccn(C2OCN(c3cccc(C(F)(F)F)c3)C2=O)n1` (stereo not drawn) [Compound 24], for which the “Plant response rating, Surinam grass” value in assay [1] (setting [10]) was 80; in [1] (setting [11]), 20. The “Plant response rating, Barnyardgrass” value in assay [2] (setting [10]) worked out at 100; in assay [2] (setting [11]), 20. Moreover, the “Plant response rating, Cocklebur” value in assay [3] (setting [10]) and in assay [3] (setting [11]) was 0 each time. Besides, the “Plant response rating, Corn” value with corn (Zea mays) (setting [10]) worked out at 20; in the assay with corn (Zea mays) (setting [11]), 0. The “Plant response rating, Crabgrass” value in assay [4] (setting [10]) and in [4] (setting [11]) was 100 throughout. Besides, the “Plant response rating, Foxtail, Giant” value is 100 in assay [5] (setting [10]) and 90 in [5] (setting [11]). Also, the “Plant response rating, Lambsquarters” value in assay [6] (setting [10]) and in [6] (setting [11]) was 100 in each case. Further, the “Plant response rating, Morningglory” value in [7] (setting [10]) and in assay [7] (setting [11]) was 0 throughout. Further, the “Plant response rating, Pigweed” value in [8] (setting [10]) and in assay [8] (setting [11]) was 100 each time. In addition, the “Plant response rating, Rice” value in the assay on rice (Oryza saliva) (setting [10]) and in the assay on rice (Oryza saliva) (setting [11]) was 0 in each case. Besides, the “Plant response rating, Velvetleaf” value in assay [9] (setting [10]) and in assay [9] (setting [11]) was 0 each time.
`CC1CCc2cn(C3CCN(c4cccc(C(F)(F)F)c4)C3=O)nc21` (stereo not drawn) [Compound 11]: the “Plant response rating, Surinam grass” value in [1] (setting [10]) and in assay [1] (setting [11]) was 0 throughout. The “Plant response rating, Barnyardgrass” value in [2] (setting [10]) and in assay [2] (setting [11]) was 0 in each case. Moreover, the “Plant response rating, Cocklebur” value in assay [3] (setting [10]) and in assay [3] (setting [11]) was 0 in each case. In addition, the “Plant response rating, Corn” value in the assay on corn (Zea mays) (setting [10]) and with corn (Zea mays) (setting [11]) was 0 in each case. Also, the “Plant response rating, Crabgrass” value in assay [4] (setting [10]) and in [4] (setting [11]) was 0 each time. The “Plant response rating, Foxtail, Giant” value in assay [5] (setting [10]) and in [5] (setting [11]) was 0 each time. In addition, the “Plant response rating, Lambsquarters” value in assay [6] (setting [10]) and in assay [6] (setting [11]) was 0 throughout. In addition, the “Plant response rating, Morningglory” value in assay [7] (setting [10]) and in assay [7] (setting [11]) was 0 throughout. Moreover, the “Plant response rating, Pigweed” value in assay [8] (setting [10]) and in assay [8] (setting [11]) was 0 each time. The “Plant response rating, Rice” value in the assay with rice (Oryza saliva) (setting [10]) and with rice (Oryza saliva) (setting [11]) was 0 throughout. Also, the “Plant response rating, Velvetleaf” value in assay [9] (setting [10]) and in assay [9] (setting [11]) was 0 in each case.
Take `CC(C)(C)c1ccn(C2OCN(c3cccc(C(F)(F)F)c3)C2=O)n1` (stereo not drawn) [compound 9]: the entries for the “Plant response rating, Surinam grass” value in assay [1] (setting [12]) and in assay [1] (setting [13]) were 0 and 70, respectively. For the same compound, the figures for the “Plant response rating, Barnyardgrass” value in [2] (setting [12]) and in [2] (setting [13]) were 0 and 60, respectively. For the same compound, the “Plant response rating, Cocklebur” value in assay [3] (setting [12]) and in assay [3] (setting [13]) was 0 throughout. Also, the “Plant response rating, Corn” value in the assay with corn (Zea mays) (setting [12]) and in the assay with corn (Zea mays) (setting [13]) was 0 in each case. For the same compound, the figures for the “Plant response rating, Crabgrass” value in assay [4] (setting [12]) and in assay [4] (setting [13]) were 0 and 100, respectively. Moreover, the “Plant response rating, Foxtail, Giant” value in [5] (setting [12]) is 30; in assay [5] (setting [13]) it was 90. Moreover, the “Plant response rating, Lambsquarters” value worked out at 90 in [6] (setting [12]) and 100 in assay [6] (setting [13]). In addition, the “Plant response rating, Morningglory” value in assay [7] (setting [12]) and in assay [7] (setting [13]) was 0 throughout. Further, the figures for the “Plant response rating, Pigweed” value in [8] (setting [12]) and in assay [8] (setting [13]) were 80 and 100, respectively. Also, the “Plant response rating, Rice” value in the assay on rice (Oryza saliva) (setting [12]) and in the assay with rice (Oryza saliva) (setting [13]) was 0 each time. For the same compound, the “Plant response rating, Velvetleaf” value in assay [9] (setting [12]) and in [9] (setting [13]) was 0 each time.
In the case of `O=C1C(n2cccn2)CCN1c1cccc(C(F)(F)F)c1` (stereo not drawn) [Compound 15], the figures for the “Plant response rating, Surinam grass” value in assay [1] (setting [10]) and in [1] (setting [11]) were 20 and 0, respectively. Further, the “Plant response rating, Barnyardgrass” value in [2] (setting [10]) and in [2] (setting [11]) was 0 in each case. In addition, the “Plant response rating, Cocklebur” value in assay [3] (setting [10]) and in assay [3] (setting [11]) was 0 throughout. Moreover, the “Plant response rating, Corn” value in the assay with corn (Zea mays) (setting [10]) and in the assay with corn (Zea mays) (setting [11]) was 0 each time. Moreover, the “Plant response rating, Crabgrass” value in [4] (setting [10]) and in [4] (setting [11]) was 0 throughout. Further, the “Plant response rating, Foxtail, Giant” value in assay [5] (setting [10]) and in [5] (setting [11]) was 0 in each case. For the same compound, the “Plant response rating, Lambsquarters” value in [6] (setting [10]) is on record as 60; in assay [6] (setting [11]) it was 0. For the same compound, the “Plant response rating, Morningglory” value is listed as 30 in assay [7] (setting [10]) and 0 in assay [7] (setting [11]). Moreover, the “Plant response rating, Pigweed” value in [8] (setting [10]) and in assay [8] (setting [11]) was 0 in each case. Also, the “Plant response rating, Rice” value in the assay on rice (Oryza saliva) (setting [10]) and with rice (Oryza saliva) (setting [11]) was 0 throughout. Moreover, the “Plant response rating, Velvetleaf” value in assay [9] (setting [10]) turned out to be 70; in assay [9] (setting [11]), 50.

Values taken from patent US7138361B2, “Herbicidal heterocycles” (E. I. du Pont de Nemours and Company, priority 2000, dated 2006).
